Tested on: WT Mtb Erdman strain
Assay: Microplate Alamar Blue Assay (MABA), Mtb growth inhibition
Type: cell-based, Mycobacterium tuberculosis
Settings: Mycobacterium tuberculosis, ERDMAN, 168 h, Middlebrook 7H9 media, 7 days at 37° C. in 5% CO2

`Cc1cc2c(NCCCc3ccc(-c4ccc(OC(F)(F)F)cc4)cc3)nc(-c3ccoc3)nc2s1` [Example 291, 2-(furan-3-yl)-6-methyl-N-(3-(4′-(trifluoromethoxy)-[1,1′-biphenyl]-4-yl)propyl)thieno [2,3-d]pyrimidin-4-amine] showed an IC50 of 8 nM.

With `CSc1nc(NCCCc2ccc(-c3ccc(OC(F)(F)F)cc3)cc2)c2nc(C)sc2n1` [Example 292, 2-methyl-5-(methylthio)-N-(3-(4′-(trifluoromethoxy)-[1,1′-biphenyl]-4-yl)propyl)thiazolo [5,4-d]pyrimidin-7-amine] the IC50 was 16 nM.

`Cc1cc2c(NCCCc3ccc(-c4cccnc4)cc3)nc(C(F)(F)F)nc2s1` [Example 293, 6-methyl-N-(3-(4-(pyridin-3-yl)phenyl)propyl)-2-(trifluoromethyl) thieno [2,3-d]pyrimidin-4-amine] showed an IC50 of 2500 nM.

Work on `Cc1nc2c(NCCCc3ccc(-c4ccc(OC(F)(F)F)cc4)cc3)nc(-c3ccoc3)nc2s1` [Example 294, 5-(furan-3-yl)-2-methyl-N-(3-(4′-(trifluoromethoxy)-[1,1′-biphenyl]-4-yl)propyl)thiazolo [5,4-d]pyrimidin-7-amine] yielded an IC50 of 89 nM.

`Cc1cc2c(NCCCc3ccc(-c4ccc(OC(F)(F)F)cc4)cc3)nc(-c3ccc(F)cc3)nc2s1` [Example 295, 2-(4-fluorophenyl)-6-methyl-N-(3-(4′-(trifluoromethoxy)-[1,1′-biphenyl]-4-yl)propyl)thieno [2,3-d]pyrimidin-4-amine] gave an IC50 of 400 nM.

`FC(F)(F)Oc1ccc(-c2ccc(CCCNc3nc(C(F)(F)F)nc4sccc34)cc2)cc1` [Example 296, N-(3-(4′-(trifluoromethoxy)-[1,1′-biphenyl]-4-yl)propyl)-2-(trifluoromethyl) thieno[2,3-d]pyrimidin-4-amine] was tested, and the IC50 was 270 nM.

`CCc1nc(NCCCc2ccc(-c3ccc(C(F)(F)F)nc3)cc2)c2cc(C)sc2n1` [Example 297, 2-ethyl-6-methyl-N-(3-(4-(6-(trifluoromethyl)pyridin-3-yl)phenyl)propyl) thieno[2,3-d]pyrimidin-4-amine] gave an IC50 of 34 nM.

`Cc1cc2c(NCCCc3ccc(-c4ccc(Cl)c(Cl)c4)cc3)nc(-c3ccoc3)nc2s1` [Example 298, N-(3-(3′,4′-dichloro-[1,1′-biphenyl]-4-yl)propyl)-2-(furan-3-yl)-6-methylthieno[2,3-d]pyrimidin-4-amine] was tested, and the IC50 was 26 nM.

Molecule `CCc1nc(NCCCc2ccc(-c3ccc(N(C)C)cc3)cc2)c2cc(C)sc2n1` [Example 299, N-(3-(4′-(dimethylamino)-[1,1′-biphenyl]-4-yl)propyl)-2-ethyl-6-methylthieno[2,3-d]pyrimidin-4-amine] has an IC50 of 26 nM.

With `CCc1nc(NCCCc2ccc(-c3ccc(Cl)cc3Cl)cc2)c2cc(C)sc2n1` [Example 300, N-(3-(2′,4′-dichloro-[1,1′-biphenyl]-4-yl)propyl)-2-ethyl-6-methylthieno[2,3-d]pyrimidin-4-amine] the IC50 was 76 nM.

`CCc1nc(NCCCc2ccc(-c3ccc(Cl)c(F)c3)cc2)c2cc(C)sc2n1` [Example 301, N-(3-(4′-chloro-3′-fluoro-[1,1′-biphenyl]-4-yl)propyl)-2-ethyl-6-methylthieno[2,3-d]pyrimidin-4-amine] showed an IC50 of 45 nM.

Molecule `CCc1nc(NCCCc2ccc(-c3ccc(C4CC4)cc3)cc2)c2cc(C)sc2n1` [Example 302, N-(3-(4′-cyclopropyl-[1,1′-biphenyl]-4-yl)propyl)-2-ethyl-6-methylthieno[2,3-d]pyrimidin-4-amine] has an IC50 of 27 nM.

In the case of `CCc1nc(NCCCc2ccc(-c3ccc(C#N)cc3)cc2)c2cc(C)sc2n1` [Example 303, 4′-(3-((2-ethyl-6-methylthieno[2,3-d]pyrimidin-4-yl)amino)propyl)-[1,1′-biphenyl]-4-carbonitrile], the IC50 is reported as 37 nM.

Work on `CCc1nc(NCCCc2ccc(-c3ccc(F)cc3)cc2)c2cc(C)sc2n1` [Example 304, 2-ethyl-N-(3-(4′-fluoro-[1,1′-biphenyl]-4-yl)propyl)-6-methylthieno[2,3-d]pyrimidin-4-amine] yielded an IC50 of 40 nM.

`CCc1nc(NCCCc2ccc(-c3ccc(OC4CC4)cc3)cc2)c2cc(C)sc2n1` [Example 305, N-(3-(4′-cyclopropoxy-[1,1′-biphenyl]-4-yl)propyl)-2-ethyl-6-methylthieno[2,3-d]pyrimidin-4-amine] gave an IC50 of 57 nM.

In the case of `CCc1nc(NCCCc2ccc(-c3ccc(OC(F)(F)F)c(F)c3)cc2)c2cc(C)sc2n1` [Example 306, 2-ethyl-N-(3-(3′-fluoro-4′-(trifluoromethoxy)-[1,1′-biphenyl]-4-yl)propyl)-6-methylthieno[2,3-d]pyrimidin-4-amine], the IC50 is reported as 47 nM.

In the case of `CCc1nc(NCCCc2ccc(-c3c(Cl)cccc3Cl)cc2)c2cc(C)sc2n1` [Example 307, N-(3-(2′,6′-dichloro-[1,1′-biphenyl]-4-yl)propyl)-2-ethyl-6-methylthieno[2,3-d]pyrimidin-4-amine], the IC50 is reported as 830 nM.

`CCc1nc(NCCCc2ccc(-c3cc(Cl)cc(Cl)c3)cc2)c2cc(C)sc2n1` [Example 308, N-(3-(3′,5′-dichloro-[1,1′-biphenyl]-4-yl)propyl)-2-ethyl-6-methylthieno[2,3-d]pyrimidin-4-amine] was tested, and the IC50 was 240 nM.

With `CCc1nc(NCCCc2ccc(-c3ccc(F)c(Cl)c3)cc2)c2cc(C)sc2n1` [Example 309, N-(3-(3′-chloro-4′-fluoro-[1,1′-biphenyl]-4-yl)propyl)-2-ethyl-6-methylthieno[2,3-d]pyrimidin-4-amine] the IC50 was 100 nM.

For `CCc1nc(NCCCc2ccc(-c3cc(Cl)ccc3Cl)cc2)c2cc(C)sc2n1` [Example 310, N-(3-(2′,5′-dichloro-[1,1′-biphenyl]-4-yl)propyl)-2-ethyl-6-methylthieno[2,3-d]pyrimidin-4-amine], the IC50 was 380 nM.

With `CCc1nc(NCCCc2ccc(-c3ccc(C(F)(F)F)cc3)cc2)c2cc(C)sc2n1` [Example 311, 2-ethyl-6-methyl-N-(3-(4′-(trifluoromethyl)-[1,1′-biphenyl]-4-yl)propyl)thieno [2,3-d]pyrimidin-4-amine] the IC50 was 27 nM.

`Cc1cc2c(NCCCCc3ccc(-c4ccc(OC(F)(F)F)cc4)cc3)nc(-c3ccoc3)nc2s1` [Example 312, 2-(furan-3-yl)-6-methyl-N-(4-(4′-(trifluoromethoxy)-[1,1′-biphenyl]-4-yl)butyl)thieno [2,3-d]pyrimidin-4-amine] gave an IC50 of 380 nM.

With `Cc1cc2c(NCCCc3ccc(-c4ccc(OC(F)(F)F)cc4)cc3F)nc(-c3ccoc3)nc2s1` [Example 313, N-(3-(3-fluoro-(trifluoromethoxy)-[1,1′-biphenyl]-4-′-yl)propyl)-2-(furan-3-yl)-6-methylthieno[2,3-d]pyrimidin-4-amine] the IC50 was 50 nM.

Molecule `Cc1cc2c(NCCCc3ccc(-c4ccc([N+](=O)[O-])cc4)cc3)nc(N(C)C)nc2s1` [Example 314, N2,N2,6-trimethyl-N4-(3-(4′-nitro-[1,1′-biphenyl]-4-yl)propyl)thieno [2,3-d]pyrimidine-2,4-diamine] has an IC50 of 3 nM.

`Cc1cc2c(NCCCc3ccc(-c4ccc(OC(F)(F)F)cc4)c(F)c3)nc(-c3ccoc3)nc2s1` [Example 315, N-(3-(2-fluoro-4′-(trifluoromethoxy)-[1,1′-biphenyl]-4-yl)propyl)-2-(furan-3-yl)-6-methylthieno[2,3-d]pyrimidin-4-amine] gave an IC50 of 12 nM.

For `COC(=O)c1ccc(-c2ccc(CCCNc3nc(-c4ccoc4)nc4sc(C)cc34)cc2)cc1` [Example 318, methyl 4′-(3-((2-(furan-3-yl)-6-methylthieno[2,3-d]pyrimidin-4-yl)amino)propyl)-[1,1′-biphenyl]-4-carboxylate], the IC50 was 20 nM.

`Cc1cc2c(NCCCc3ccc(-c4ccc(F)cc4)cc3)nc(-c3ccoc3)nc2s1` [Example 322, N-(3-(4′-fluoro-[1,1′-biphenyl]-4-yl)propyl)-2-(furan-3-yl)-6-methylthieno[2,3-d]pyrimidin-4-amine] was tested, and the IC50 was 6 nM.

With `Cc1cc2c(NC/C=C/c3ccc(-c4ccc(OC(F)(F)F)cc4)cc3)nc(-c3ccoc3)nc2s1` [Example 323, 2-(furan-3-yl)-6-methyl-N-[(2E)-3-[4′-(trifluoromethoxy)-[1,1′-biphenyl]-4-yl]prop-2-en-1-yl]thieno[2,3-d]pyrimidin-4-amine] the IC50 was 37 nM.

`Cc1cc2c(NCCCc3ccc(-c4ccnc(C(F)(F)F)c4)cc3)nc(-c3ccoc3)nc2s1` [Example 324, 2-(furan-3-yl)-6-methyl-N-(3-(4-[2-(trifluoromethyl)pyridin-4-yl]phenyl)propyl) thieno[2,3-d]pyrimidin-4-amine] showed an IC50 of 160 nM.

`Cc1cc2c(NCCCc3ccc(-c4ccc(N(C)C)cc4)cc3)nc(-c3ccoc3)nc2s1` [Example 325, N-(3-[4′-(dimethylamino)-[1,1′-biphenyl]-4-yl]propyl)-2-(furan-3-yl)-6-methylthieno[2,3-d]pyrimidin-4-amine] showed an IC50 of 10 nM.

Work on `Cc1cc2c(NCCCc3ccc(-c4ccc(OC5CC5)cc4)cc3)nc(-c3ccoc3)nc2s1` [Example 326, N-(3-(4′-cyclopropoxy-[1,1′-biphenyl]-4-yl)propyl)-2-(furan-3-yl)-6-methylthieno[2,3-d]pyrimidin-4-amine] yielded an IC50 of 15 nM.

`Cc1cc2c(NCCCc3ccc(-c4cccc(C#N)c4)cc3)nc(-c3ccoc3)nc2s1` [Example 327, 4′-(3-([2-(furan-3-yl)-6-methylthieno[2,3-d]pyrimidin-4-yl]amino)propyl)-[1,1′-biphenyl]-3-carbonitrile] was tested, and the IC50 was 100 nM.

`Cc1cc2c(NCCCc3ccc(-c4ccc([N+](=O)[O-])cc4)cc3)nc(-c3ccoc3)nc2s1` [Example 328, 2-(furan-3-yl)-6-methyl-N-(3-(4′-nitro-[1,1′-biphenyl]-4-yl)propyl)thieno [2,3-d]pyrimidin-4-amine] gave an IC50 of less than 1 nM.

`Cc1cc2c(NCCCc3ccc(-c4ccc5c(ccn5C)c4)cc3)nc(-c3ccoc3)nc2s1` [Example 329, 2-(furan-3-yl)-6-methyl-N-(3-[4-(1-methyl-1H-indol-5-yl)phenyl]propyl) thieno[2,3-d]pyrimidin-4-amine] gave an IC50 of 34 nM.

With `Cc1cc2c(NCCCc3ccc(-c4cccs4)cc3)nc(-c3ccoc3)nc2s1` [Example 330, 2-(furan-3-yl)-6-methyl-N-(3-[4-(thiophen-2-yl)phenyl]propyl) thieno[2,3-d]pyrimidin-4-amine] the IC50 was less than 5 nM.
